Results as given in patent US7053088B2, “Vanilloid receptor ligands and their use in treatments” (Amgen Inc., priority 2002, dated 2006).

Row | SMILES | melting point
1 | CC(C)(C)c1ccc(-c2cc(Nc3cnc4ccccc4c3)ncn2)cc1 [Example 47] | 227 to 229 °C
2 | COc1ccc2ccc(Nc3cc(-c4ccc(C(F)(F)F)cc4)ncn3)cc2n1 [(2-Methoxyquinolin-7-yl)-[6-(4-trifluoromethylphenyl)pyrimidin-4-yl]amine] | 199 °C
3 | Oc1ccc2ccc(Nc3cc(-c4ccc(C(F)(F)F)cc4)ncn3)cc2n1 [7-[6-(4-Trifluoromethylphenyl)pyrimidin-4-ylamino]quinolin-2-ol] | 337 °C (dec.)
4 | FC(F)(F)c1ccc(-c2cc(Nc3ccc4cc[nH]c4c3)ncn2)cc1 [Example 42] | 231 to 232 °C

The next lines start with the values.

Row | melting point | SMILES
5 | 269 °C | Fc1ccc(-c2nnc(Nc3ccc4ncsc4c3)cc2-c2ccc(C(F)(F)F)cc2)cc1 [benzothiazol-6-yl-[6-(4-fluorophenyl)-5-(4-trifluoromethylphenyl)pyridazin-3-yl]amine]
6 | 206.3 °C (dec.) | FC(F)(F)c1ccc(-c2cc(Nc3ccc4ncsc4c3)nnc2Cl)cc1 [Benzothiazol-6-yl-[6-chloro-5-(4-trifluoromethylphenyl)pyridazin-3-yl]amine]
7 | 272 °C | FC(F)(F)c1ccc(-c2cc(Nc3ccc4ncsc4c3)nnc2-c2ccccc2)cc1 [benzothiazol-6-yl-[6-phenyl-5-(4-trifluoromethylphenyl)pyridazin-3-yl]amine]
